One block for each molecule: values may come before it. Where no end group is shown, it is not given here.
Columns and labels:
rat GLP-1 receptor = biological target: T1, rat GLP-1 receptor (Rattus norvegicus, UniProt P32301); experiment: cAMP accumulation in BHK cells stably expressing the rat GLP-1 receptor (RIA); format: cell-based; details: BHK-GLP-1R cells
T1 construct: expressed in transfected cells; host or cells: BHK (baby hamster kidney fibroblast) cells, stably transfected
T1 sequence (P32301 22-463): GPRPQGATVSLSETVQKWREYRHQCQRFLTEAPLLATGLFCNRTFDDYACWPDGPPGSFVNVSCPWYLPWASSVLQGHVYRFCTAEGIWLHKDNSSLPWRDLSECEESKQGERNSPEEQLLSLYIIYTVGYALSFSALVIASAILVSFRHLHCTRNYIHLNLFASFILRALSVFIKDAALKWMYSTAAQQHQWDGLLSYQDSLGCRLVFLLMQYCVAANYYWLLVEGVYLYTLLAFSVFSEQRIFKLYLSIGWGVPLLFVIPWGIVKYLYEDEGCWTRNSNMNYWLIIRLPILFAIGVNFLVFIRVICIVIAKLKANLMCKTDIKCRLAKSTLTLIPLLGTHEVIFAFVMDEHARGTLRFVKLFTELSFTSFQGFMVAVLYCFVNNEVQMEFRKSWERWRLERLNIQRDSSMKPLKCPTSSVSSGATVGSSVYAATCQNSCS

GLP-1R-/- mice = experiment: Intracerebroventricular peptide injection and food intake in GLP-1R-/- mice; format: in vivo, mouse; details: icv 50 ug; dark phase; 0-1 hour and 2-4 hour time points
Description: FIG. 1: h[Gly^2]-GLP-2 (also designated “440” in the Figure) inhibits dark phase food intake in mice. […] Following recovery, food intake was measured at 1, 2, and 4 hours (Hr) after injection. Values are expressed as mean±S.E.M., n=6 per group for (a) and n=8-20 for (b). (c) Groups of wildtype mice were administered either vehicle (PBS), h[Gly^2]-GLP-2 (50 ug dissolved in PBS), h[Gly^2]-GLP-2 and exendin (9-39) (50 ug of each peptide dissolved in PBS) or exendin (9-39) alone (50 ug dissolved in PBS) via icv injection. (f) Groups of wildtype mice were administered (icv) either vehicle (PBS), h[Gly^2]-GLP-2 alone (50 ug dissolved in PBS), or h[Gly^2]-GLP-2 (50 ug dissolved in PBS) and exendin (9-39) (0.05, 0.5 or 5 ug dissolved in PBS). (e) Groups of wildtype and GLP-1R−/− mice were injected icv with either vehicle (PBS) or h[Gly^2]-GLP-2 (50 ug dissolved in PBS) just prior to the start of dark phase and food intake was measured at 1, 2, and 4 hours. Data are expressed as mean±S.E.M., n=5-8 for all groups. […]
For icv injections adult male CD1 mice randomized into multiple experimental groups were deeply anesthetized by inhalation of methoxyflurane (Metophane; Janssen, Toronto Ontario) (43). […] Mice were then weighed, given a premeasured quantity of rodent chow and food intake was quantified at 1, 2, 4 and 22 hours. […]

rat GLP-2 receptor = biological target: T2, rat GLP-2 receptor (Rattus norvegicus, UniProt Q9Z0W0); experiment: cAMP accumulation in BHK cells stably expressing the rat GLP-2 receptor (RIA); format: cell-based; details: BHK-GLP-2R cells
T2 construct: expressed in transfected cells; host or cells: BHK (baby hamster kidney fibroblast) cells, stably transfected
T2 sequence (Q9Z0W0 1-550): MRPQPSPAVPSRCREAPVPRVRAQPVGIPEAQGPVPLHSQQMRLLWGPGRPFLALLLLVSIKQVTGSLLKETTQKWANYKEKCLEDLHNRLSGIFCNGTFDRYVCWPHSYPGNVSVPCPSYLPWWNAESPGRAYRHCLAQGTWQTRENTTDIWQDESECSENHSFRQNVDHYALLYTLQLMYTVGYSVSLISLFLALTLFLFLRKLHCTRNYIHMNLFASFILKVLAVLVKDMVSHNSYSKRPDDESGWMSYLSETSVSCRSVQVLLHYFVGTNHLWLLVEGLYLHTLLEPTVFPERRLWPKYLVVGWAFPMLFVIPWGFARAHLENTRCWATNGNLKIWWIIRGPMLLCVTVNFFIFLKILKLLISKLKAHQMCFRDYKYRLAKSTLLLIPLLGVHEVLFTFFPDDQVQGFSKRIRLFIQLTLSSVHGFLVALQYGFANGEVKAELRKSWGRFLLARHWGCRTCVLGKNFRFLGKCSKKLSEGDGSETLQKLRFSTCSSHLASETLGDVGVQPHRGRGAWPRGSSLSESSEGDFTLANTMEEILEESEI
Description: Peptides were diluted in DMEM containing 100 μM IBMX. The cAMP concentration in aliquots of ethanol extract was determined using a RIA and normalized to show cAMP/well. […] The concentration of peptide is plotted on a logarithmic scale. Error bars represent mean±SD.
GLP-2 receptors were propagated as previously described (42) and levels of intracellular cAMP were assayed following exposure to individual peptides in DMEM containing 100 μM IBMX (Sigma Chemical Co., St. Louis, Mo.) as reported (41,42). […] The treated cells were then incubated at 37° C. for 10 minutes. Absolute ethanol (−20° C.) was added to terminate the reaction and the plates were stored at −80° C. until the cell extracts were collected (2-4 hours later). Forskolin was used as a positive control. Cyclic adenosine monophosphate (cAMP) radioimmunoassays (Biomedical Technologies, Stoughton, Mass.) were performed on dried aliquots of extract and data was normalized to cAMP/well. All treatments were performed in triplicate or quadruplicate and the data is expressed as mean±SD. EC50 values were calculated using GraphPad Prism 3.00 (GraphPad Software Inc., San Diego, Calif.).

adult male CD1 mice = experiment: Intracerebroventricular peptide injection and food intake in wildtype mice; format: in vivo, mouse; details: for dark phase food intake: icv prior to dark phase; for dark phase food intake / food intake in fasted mice: h[Gly2]-GLP-2 50 ug, exendin-4 1 ug; for food intake in fasted mice: after 15 hour fast
Description: FIG. 1: h[Gly^2]-GLP-2 (also designated “440” in the Figure) inhibits dark phase food intake in mice. […] Following recovery, food intake was measured at 1, 2, and 4 hours (Hr) after injection. Values are expressed as mean±S.E.M., n=6 per group for (a) and n=8-20 for (b). (c) Groups of wildtype mice were administered either vehicle (PBS), h[Gly^2]-GLP-2 (50 ug dissolved in PBS), h[Gly^2]-GLP-2 and exendin (9-39) (50 ug of each peptide dissolved in PBS) or exendin (9-39) alone (50 ug dissolved in PBS) via icv injection. (f) Groups of wildtype mice were administered (icv) either vehicle (PBS), h[Gly^2]-GLP-2 alone (50 ug dissolved in PBS), or h[Gly^2]-GLP-2 (50 ug dissolved in PBS) and exendin (9-39) (0.05, 0.5 or 5 ug dissolved in PBS). (e) Groups of wildtype and GLP-1R−/− mice were injected icv with either vehicle (PBS) or h[Gly^2]-GLP-2 (50 ug dissolved in PBS) just prior to the start of dark phase and food intake was measured at 1, 2, and 4 hours. Data are expressed as mean±S.E.M., n=5-8 for all groups. Treatments at each time point for experiments shown in FIG. 1 were compared using a one way analysis of variance followed by an LSD multiple range test using SPSS for Windows version 5.0.1 (SPSS Inc., Chicago Ill.). *p<0.05 compared to controls (PBS), or to comparisons between groups indicated by connected lines.
For icv injections adult male CD1 mice randomized into multiple experimental groups were deeply anesthetized by inhalation of methoxyflurane (Metophane; Janssen, Toronto Ontario) (43). Following icv injections of equal volumes of saline or peptide dissolved in saline, animals were allowed to recover for ^˜15-20 minutes until the observation of a righting-response. Mice were then weighed, given a premeasured quantity of rodent chow and food intake was quantified at 1, 2, 4 and 22 hours. The accuracy of icv injection was verified at autopsy analysis by detection of bromophenol dye in the lateral ventricles of selected animals. Animals were injected with peptide at either 19:00 hours (for dark phase feeding studies) or at 10:00 hours following an overnight fast of 15 hours (for fasting studies).

rats = details: cited from earlier work
[1] = tested on: human subjects with short bowel syndrome; details: 400 ug twice daily; cited from earlier work

cAMP accumulation (agonist effect) (rat GLP-1 receptor): no effect on cAMP accumulation
EC50 (rat GLP-2 receptor; 0 nM Exendin (9-39) pre-treatment): 0.044 nM
EC50 (rat GLP-2 receptor; in the presence of 50 nM Exendin (9-39)): 0.059 nM
EC50 (rat GLP-2 receptor; in the presence of 500 nM Exendin (9-39)): 0.076 nM
EC50 (rat GLP-2 receptor; in the presence of 1000 nM Exendin (9-39)): 0.081 nM
Molecule: CC[C@H](C)[C@H](NC(=O)[C@H](Cc1ccccc1)NC(=O)[C@H](CC(=O)O)NC(=O)[C@H](CCCNC(=N)N)NC(=O)[C@H](C)NC(=O)[C@H](C)NC(=O)[C@H](CC(C)C)NC(=O)[C@H](CC(N)=O)NC(=O)[C@H](CC(=O)O)NC(=O)[C@H](CC(C)C)NC(=O)[C@@H](NC(=O)[C@@H](NC(=O)[C@H](CC(N)=O)NC(=O)[C@H](CCSC)NC(=O)[C@H](CCC(=O)O)NC(=O)[C@H](CC(=O)O)NC(=O)[C@H](CO)NC(=O)[C@H](Cc1ccccc1)NC(=O)[C@H](CO)NC(=O)CNC(=O)[C@H](CC(=O)O)NC(=O)CNC(=O)[C@@H](N)Cc1c[nH]cn1)[C@@H](C)O)[C@@H](C)CC)C(=O)N[C@@H](CC(N)=O)C(=O)N[C@@H](Cc1c[nH]c2ccccc12)C(=O)N[C@@H](CC(C)C)C(=O)N[C@H](C(=O)N[C@@H](CCC(N)=O)C(=O)N[C@H](C(=O)N[C@@H](CCCCN)C(=O)N[C@H](C(=O)N[C@H](C(=O)N[C@@H](CC(=O)O)C(=O)O)[C@@H](C)O)[C@@H](C)CC)[C@@H](C)O)[C@@H](C)CC [h[Gly^2]-GLP-2]
inhibition of food intake in GLP-1R-/- mice compared with +/+ control mice (GLP-1R-/- mice): significantly greater sensitivity
cAMP accumulation (agonist effect) (rat GLP-2 receptor): increased cAMP accumulation in a dose-dependent manner
dark phase food intake (adult male CD1 mice): significantly inhibited
food intake in fasted mice (adult male CD1 mice; icv): not
food intake in the first hour after injection, absence of exendin (9-39) (adult male CD1 mice; icv, dark phase, 50 ug): did not inhibit food intake
duration of inhibitory effect on food intake (adult male CD1 mice; icv, data not shown): transient and not detectable after more than 4 hours
inhibition of food intake with co-administered exendin (9-39) (adult male CD1 mice; icv, wildtype mice, 50 ug of each peptide, multiple time intervals including first hour): significantly more pronounced

Molecule: Rat GLP-1 (7-36)NH2 [reference compound]
cAMP accumulation (agonist effect) (rat GLP-2 receptor): no cAMP accumulation was detected

Molecule: exendin (9-39) [reference compound]
effect on GLP-1-stimulated cAMP accumulation (antagonism) (rat GLP-1 receptor): decreased GLP-1-stimulated cAMP accumulation in a concentration-dependent manner
effect on h[Gly2]-GLP-2-stimulated cAMP formation (antagonism) (rat GLP-2 receptor; exendin (9-39) 50-1000 nM): no effect
amount sufficient for significant potentiation of anorectic effect of h[Gly2]-GLP-2 (adult male CD1 mice; icv with h[Gly2]-GLP-2 50 ug, dark phase, 1-2 hour time point): 0.05 µg
effect on the anorectic effects of GLP-2 in rats (rats): completely inhibited

Molecule: exendin-4 [reference compound]
cAMP accumulation (agonist effect) (rat GLP-2 receptor): no cAMP accumulation was detected
dark phase food intake (adult male CD1 mice): significantly inhibited
food intake in fasted mice (adult male CD1 mice; icv): inhibited food intake
inhibitory effect on dark phase food intake compared with h[Gly2]-GLP-2 (adult male CD1 mice; icv, dark phase): significantly more potent

Molecule: glucagon-like peptide 2 (HADGSFSDEMNTILDNLAARDFINWLIQTKITD; also: acetate salt; UniProt P01275 146-178, looked up) [GLP-2, wild type glucagon-like peptide 2; literature results in rats (icv) and in humans as acetate salt]
therapeutic response in short bowel patients [1]: significant therapeutic response
food intake in rats after icv infusion (rats; icv): inhibited food intake

Source: US7862824B2, “Enhancement of GLP-2 activity of suppressing appetite” (1149336 Ontario, Inc., priority 2001, dated 2011)
